Molecules are shown by their SMILES.

In this assay the target is HPK1 (Homo sapiens (Human), UniProt Q92918). Nature of the assay: HPK1 Lantha binding assay ("Lanth"). The settings on record: binding assays; Morrison Ki fit. The gist of the method: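 TR-FRET binding competition using 2 nM HPK1, 2 nM Eu-anti-GST antibody and 15 nM Tracer222 at 23 °C. Compound was incubated 1 h with enzyme and antibody, then 1 h after tracer addition, with an 11-point 5-fold dilution series. Ki obtained from a Morrison fit that corrects for tracer concentration and Kd.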
Sequence of HPK1 (Q92918 1-346 limits assumed): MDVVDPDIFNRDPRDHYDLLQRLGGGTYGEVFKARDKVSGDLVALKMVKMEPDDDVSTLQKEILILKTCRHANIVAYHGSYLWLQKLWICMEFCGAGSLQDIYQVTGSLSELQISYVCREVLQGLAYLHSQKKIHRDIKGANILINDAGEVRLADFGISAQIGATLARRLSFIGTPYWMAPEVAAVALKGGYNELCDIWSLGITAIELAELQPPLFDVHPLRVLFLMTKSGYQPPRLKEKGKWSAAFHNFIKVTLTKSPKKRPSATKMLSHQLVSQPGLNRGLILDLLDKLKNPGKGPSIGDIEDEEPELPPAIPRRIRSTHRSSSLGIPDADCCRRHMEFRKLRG
`CNS(=O)(=O)c1cccc(-c2cnc3c(c2Cl)C2(CC=CC2)CN3)c1` [Compound 185, 3-(4′-Chloro-1′,2′-dihydrospiro[cyclopentane-1,3′-pyrrolo[2,3-b]pyridin]-3-en-5′-yl)-N-methylbenzenesulfonamide] yielded an inhibition constant (Ki) of 75.8 nM. With `CS(=O)(=O)c1ccc(-c2cnc3c(c2Cl)C2(CC=CC2)CN3)cc1` [Compound 186, 4′-Chloro-5′-(4-(methylsulfonyl)phenyl)-1′,2′-dihydrospiro[cyclopentane-1,3′-pyrrolo[2,3-b]pyridin]-3-ene] the figure was 276 nM; with `CCS(=O)(=O)c1ccc(-c2cnc3c(c2Cl)C2(CC=CC2)CN3)cc1` [Compound 187, 4′-Chloro-5′-(4-(ethylsulfonyl)phenyl)-1′,2′-dihydrospiro[cyclopentane-1,3′-pyrrolo[2,3-b]pyridin]-3-ene], 300 nM; with `CNS(=O)(=O)c1ccc(-c2cnc3c(c2Cl)C2(CC=CC2)CN3)cc1` [Compound 188, 4-(4′-Chloro-1′,2′-dihydrospiro[cyclopentane-1,3′-pyrrolo[2,3-b]pyridin]-3-en-5′-yl)-N-methylbenzenesulfonamide], 210 nM.

`CCNS(=O)(=O)c1ccc(-c2cnc3c(c2Cl)C2(CC=CC2)CN3)cc1` [Compound 189, 4-(4′-Chloro-1′,2′-dihydrospiro[cyclopentane-1,3′-pyrrolo[2,3-b]pyridin]-3-en-5′-yl)-N-ethylbenzenesulfonamide] had an inhibitory constant (Ki) of 315 nM. For `N#Cc1cccc(-c2cnc3c(c2Cl)C2(CC=CC2)CN3)c1` [Compound 190, 3-(4′-Chloro-1′,2′-dihydrospiro[cyclopentane-1,3′-pyrrolo[2,3-b]pyridin]-3-en-5′-yl)benzonitrile] the value was 359 nM; for `CN(C)C(=O)c1c(N)ccc(-c2cnc3c(c2Cl)[C@]2(CC[C@@](C)(O)CC2)CN3)c1F` [Compound 194a, 6-Amino-3-((1r,4r)-4′-chloro-4-hydroxy-4-methyl-1′,2′-dihydrospiro[cyclohexane-1,3′-pyrrolo[2,3-b]pyridin]-5′-yl)-2-fluoro-N,N-dimethylbenzamide], 30.4 nM; for `CN(C)C(=O)c1c(N)ccc(-c2cnc3c(c2Cl)[C@]2(CC[C@](C)(O)CC2)CN3)c1F` [Compound 194b, 6-Amino-3-((1s,4s)-4′-chloro-4-hydroxy-4-methyl-1′,2′-dihydrospiro[cyclohexane-1,3′-pyrrolo[2,3-b]pyridin]-5′-yl)-2-fluoro-N,N-dimethylbenzamide], 8.36 nM. As to `CN(C)C(=O)c1c(N)ccc(-c2cnc3c(c2Cl)C2(CCCCC2)CN3)c1F` [Compound 200, 6-Amino-3-(4′-chloro-1′,2′-dihydrospiro[cyclohexane-1,3′-pyrrolo[2,3-b]pyridin]-5′-yl)-2-fluoro-N,N-dimethylbenzamide], the Ki turned out to be 4.76 nM. For `O=S(=O)(c1ccc(-c2cnc3c(c2Cl)C2(CC=CC2)CN3)cc1)n1cccn1` [Compound 203, 5′-(4-((1H-Pyrazol-1-yl)sulfonyl)phenyl)-4′-chloro-1′,2′-dihydrospiro[cyclopentane-1,3′-pyrrolo[2,3-b]pyridin]-3-ene] the value was 885 nM; for `OCC1(c2ccc(-c3cnc4c(c3Cl)C3(CC=CC3)CN4)cc2)CC1` [Compound 204, (1-(4-(4′-Chloro-1′,2′-dihydrospiro[cyclopentane-1,3′-pyrrolo[2,3-b]pyridin]-3-en-5′-yl)phenyl)cyclopropyl)methanol], 285 nM. With `CN(C)C(=O)c1ccc(-c2cnc3c(c2Cl)C2(CC=CC2)CN3)cc1F` [Compound 205, 4-(4′-Chloro-1′,2′-dihydrospiro[cyclopentane-1,3′-pyrrolo[2,3-b]pyridin]-3-en-5′-yl)-2-fluoro-N,N-dimethylbenzamide] the figure was 267 nM; with `CN(C)C(=O)c1ccc(-c2cnc3c(c2Cl)C2(CC=CC2)CN3)c(F)c1` [Compound 206, 4-(4′-Chloro-1′,2′-dihydrospiro[cyclopentane-1,3′-pyrrolo[2,3-b]pyridin]-3-en-5′-yl)-3-fluoro-N,N-dimethylbenzamide], 436 nM. `O=S(=O)(Nc1ccc(-c2cnc3c(c2Cl)C2(CC=CC2)CN3)cc1)C1CC1` [Compound 207, N-(4-(4′-Chloro-1′,2′-dihydrospiro[cyclopentane-1,3′-pyrrolo[2,3-b]pyridin]-3-en-5′-yl)phenyl)cyclopropanesulfonamide]: the affinity corresponds to a Ki of 87 nM. For `O=S1(=O)CCCN1c1ccc(-c2cnc3c(c2Cl)C2(CC=CC2)CN3)cc1` [Compound 208, 2-(4-(4′-Chloro-1′,2′-dihydrospiro[cyclopentane-1,3′-pyrrolo[2,3-b]pyridin]-3-en-5′-yl)phenyl)isothiazolidine 1,1-dioxide] the value was 201 nM; for `O=S(=O)(Nc1cccc(-c2cnc3c(c2Cl)C2(CC=CC2)CN3)c1)C1CC1` [Compound 209, N-(3-(4′-Chloro-1′,2′-dihydrospiro[cyclopentane-1,3′-pyrrolo[2,3-b]pyridin]-3-en-5′-yl)phenyl)cyclopropanesulfonamide], 199 nM. The molecule `CS(=O)(=O)Nc1cccc(-c2cnc3c(c2Cl)C2(CC=CC2)CN3)c1` [Compound 210, N-(3-(4′-Chloro-1′,2′-dihydrospiro[cyclopentane-1,3′-pyrrolo[2,3-b]pyridin]-3-en-5′-yl)phenyl)methanesulfonamide] yielded a Ki of 70.8 nM. With `CC(=O)NCc1cccc(-c2cnc3c(c2Cl)C2(CC=CC2)CN3)c1` [Compound 211, N-(3-(4′-Chloro-1′,2′-dihydrospiro[cyclopentane-1,3′-pyrrolo[2,3-b]pyridin]-3-en-5′-yl)benzyl)acetamide] the figure was 145 nM. For `CC(=O)NCc1ccc(-c2cnc3c(c2Cl)C2(CC=CC2)CN3)cc1` [Compound 212, N-(4-(4′-Chloro-1′,2′-dihydrospiro[cyclopentane-1,3′-pyrrolo[2,3-b]pyridin]-3-en-5′-yl)benzyl)acetamide] the value was 112 nM; for `CC(=O)NCCc1ccc(-c2cnc3c(c2Cl)C2(CC=CC2)CN3)cc1` [Compound 213, N-(4-(4′-chloro-1′,2′-dihydrospiro[cyclopentane-1,3′-pyrrolo[2,3-b]pyridin]-3-en-5′-yl)phenethyl)acetamide], 286 nM.

The molecule `O=C(NCCO)c1ccc(-c2cnc3c(c2Cl)C2(CC=CC2)CN3)cc1` [Compound 214, 4-(4′-Chloro-1′,2′-dihydrospiro[cyclopentane-1,3′-pyrrolo[2,3-6]pyridin]-3-en-5′-yl)-N-(2-hydroxyethyl)benzamide] displayed a Ki of 340 nM. With `Clc1c(-c2ccc(-n3cccn3)cc2)cnc2c1C1(CC=CC1)CN2` [Compound 215, 5′-(4-(1H-Pyrazol-1-yl)phenyl)-4′-chloro-1′,2′-dihydrospiro[cyclopentane-1,3′-pyrrolo[2,3-b]pyridin]-3-ene] the figure was 676 nM. In the case of `OCc1ccc(-c2cnc3c(c2Cl)C2(CC=CC2)CN3)c(F)c1` [Compound 216, (4-(4′-Chloro-1′,2′-dihydrospiro[cyclopentane-1,3′-pyrrolo[2,3-b]pyridin]-3-en-5′-yl)-3-fluorophenyl)methanol], the affinity, expressed as Ki, was 330 nM. For `CN(C)S(=O)(=O)Nc1cccc(-c2cnc3c(c2Cl)C2(CC=CC2)CN3)c1` [Compound 218, N-(3-(4′-Chloro-1′,2′-dihydrospiro[cyclopentane-1,3′-pyrrolo[2,3-b]pyridin]-3-en-5′-yl)phenyl)-N′,N′-dimethylsulfamide] the value was 230 nM.

The values are drawn from US12208088B2 (Genentech, Inc., priority 2018, dated 2025).
